Source: patent US9125388B2, “Biological control” (Isis Innovation Limited, priority 1999, dated 2015)

Experiments:
Test in all cases: Recombinant chromosome experiments: parents raised on supplement, progeny on normal food, adults by sex (25, 18 or 29° C.)
Assay type in all cases: in vivo, Drosophila melanogaster
[1] = system: Hsp26 tTa, tRe Msl-2^Nopu on the 2nd chromosome
Procedure: (§1) 40-45 young females and 20-25 young males raised at 25° C. upon food with the indicated tetracycline supplement were allowed to mate, then transferred to normal (tetracycline-free) food after 3-4 days. These flies were transferred to fresh vials of normal food every day for 12 days, then removed on the 13th day. All the vials were incubated at 25° C. while the progeny developed. The numbers of male and female progeny emerging as adults in each vial were recorded.
(§2) A standard range of additive concentrations were used in the following experiments (0.05-20 μg/ml). […] (=“not done”)
(§3) All the preceding experiments were performed at 25° C., the standard temperature for Drosophila culture. However, the insects in the wild would clearly be exposed to varying temperatures, so we investigated the extent to which the efficiency of the system is affected by temperature. As with the recombinant chromosome experiments, 40-45 young virgin females and 20-25 young males raised at 25° C. upon food with the indicated tetracycline supplement were allowed to mate, then transferred to normal (tetracycline-free) food after 3-4 days. These flies were transferred to fresh vials of normal food every day. The numbers of male and female progeny emerging as adults in each vial were recorded. These experiments were performed at either 18° C. or 29° C.

[2] = system: Sxl^pe-tTA, tRE-Ras64B^V12 on the X chromosome; settings: for Female progeny / Male progeny: 18° C., then tetracycline-free food; for Female progeny per daily vial / Female progeny Total / Male progeny Total: 25° C.; for Female progeny per daily vial: Day 1-12 on tetracycline-free food; for Female progeny Total / Male progeny Total: Day 1-12 total; for Female progeny emerging as adults / Male progeny emerging as adults: 29° C.
Procedure: as §1, §2, §3

[3] = system: Hsp26 tTa, tRe Msl-1^Mpu on the 2nd chromosome
Procedure: as §1, §2, §3

[4] = system: Sxl^pe-tTA, tRE-Msl-2^Nopu on the third chromosome; settings: for Female progeny per daily vial / Female progeny Total / Male progeny Total: 25° C.; for Female progeny per daily vial: Day 1-12 on tetracycline-free food; for Female progeny Total / Male progeny Total: Day 1-12 total
Procedure: as §1, §2, §3

[5] = system: Sxl^pe-tTA, tRE-Msl-2^Nopu on the X chromosome; settings: for Female progeny per daily vial / Female progeny Total / Male progeny Total: 25° C.; for Female progeny per daily vial: Day 1-12 on tetracycline-free food; for Female progeny Total / Male progeny Total: Day 1-12 total
Procedure: as §1, §2, §3

[6] = parents raised on tetracycline 0.1 μg/ml, 18° C.
[7] = parents raised on tetracycline 0.1 μg/ml, 29° C.
[8] = parents raised on tetracycline 1 μg/ml, 18° C.
[9] = parents raised on tetracycline 1 μg/ml, 29° C.
[10] = parents raised on tetracycline 5 μg/ml, 18° C.
[11] = parents raised on tetracycline 5 μg/ml, 29° C.
[12] = parents raised on Tetracycline 0.1 μg/ml
[13] = parents raised on Tetracycline 1 μg/ml
[14] = parents raised on Tetracycline 5 μg/ml
[15] = parents raised on Tet. 0.1 μg/ml
[16] = parents raised on Tet. 20 μg/ml
[17] = parents raised on Tet. 100 μg/ml
[18] = parents raised on Tet. 500 μg/ml
[19] = parents raised on Tet. 1000 μg/ml
[20] = parents raised on Tet. 2000 μg/ml
[21] = parents raised on tetracycline 0.1 μg/ml
[22] = parents raised on tetracycline 1 μg/ml
[23] = parents raised on tetracycline 5 μg/ml

CN(C)[C@@H]1C(O)=C(C(N)=O)C(=O)[C@@]2(O)C(O)=C3C(=O)c4c(O)cccc4[C@@](C)(O)[C@H]3C[C@@H]12 [Tetracycline, tetracycline] was tested, and the “Female progeny emerging as adults” value [1, 6] was 8, the “Male progeny emerging as adults” value [1, 6] was 832 and the “Female progeny emerging as adults” value [1, 7] was 0. The “Male progeny emerging as adults” value [1, 7] was 696, the “Female progeny emerging as adults” value [1, 8] was 7 and the “Male progeny emerging as adults” value [1, 8] was 879. The “Female progeny emerging as adults” value [1, 9] was 0, the “Male progeny emerging as adults” value [1, 9] was 658 and the “Female progeny emerging as adults” value [1, 10] was 4. The “Male progeny emerging as adults” value [1, 10] was 818, the “Female progeny emerging as adults” value [1, 11] was 0 and the “Male progeny emerging as adults” value [1, 11] was 711. The Female progeny [2, 12] was 8, the Male progeny [2, 12] was 982 and the Female progeny [2, 13] was 10. The Male progeny [2, 13] was 912, the Female progeny [2, 14] was 7 and the Male progeny [2, 14] was 871. For the same molecule, the “Female progeny per daily vial” value [2, 15] was 0, the “Female progeny Total” value [2, 15] was 0 and the “Male progeny Total” value [2, 15] was 1262. For the same molecule, the “Female progeny per daily vial” value ([2]; parents raised on Tet. 1 μg/ml) was 0, the “Female progeny Total” value ([2]; parents raised on Tet. 1 μg/ml) was 0 and the “Male progeny Total” value ([2]; parents raised on Tet. 1 μg/ml) was 1399. The “Female progeny per daily vial” value ([2]; parents raised on Tet. 5 μg/ml) was 0, the “Female progeny Total” value ([2]; parents raised on Tet. 5 μg/ml) was 0 and the “Male progeny Total” value ([2]; parents raised on Tet. 5 μg/ml) was 1359. The “Female progeny per daily vial” value [2, 16] was 0, the “Female progeny Total” value [2, 16] was 0 and the “Male progeny Total” value [2, 16] was 1398. For the same molecule, the “Female progeny per daily vial” value [2, 17] was 0, the “Female progeny Total” value [2, 17] was 0 and the “Male progeny Total” value [2, 17] was 1469. The “Female progeny Total” value [2, 18] was 25, the “Male progeny Total” value [2, 18] was 1478 and the “Female progeny Total” value [2, 19] was 49. For the same molecule, the “Male progeny Total” value [2, 19] was 1349, the “Female progeny Total” value [2, 20] was 92 and the “Male progeny Total” value [2, 20] was 1439. The “Female progeny emerging as adults” value [2, 21] was 0, the “Male progeny emerging as adults” value [2, 21] was 716 and the “Female progeny emerging as adults” value [2, 22] was 0. For the same molecule, the “Male progeny emerging as adults” value [2, 22] was 711, the “Female progeny emerging as adults” value [2, 23] was 0 and the “Male progeny emerging as adults” value [2, 23] was 715. For the same molecule, the “Female progeny emerging as adults” value [3, 6] was 6, the “Male progeny emerging as adults” value [3, 6] was 628 and the “Female progeny emerging as adults” value [3, 7] was 0. For the same molecule, the “Male progeny emerging as adults” value [3, 7] was 733, the “Female progeny emerging as adults” value [3, 8] was 3 and the “Male progeny emerging as adults” value [3, 8] was 614. The “Female progeny emerging as adults” value [3, 9] was 0, the “Male progeny emerging as adults” value [3, 9] was 776 and the “Female progeny emerging as adults” value [3, 10] was 5. The “Male progeny emerging as adults” value [3, 10] was 712, the “Female progeny emerging as adults” value [3, 11] was 0 and the “Male progeny emerging as adults” value [3, 11] was 728. For the same molecule, the “Female progeny per daily vial” value [4, 15] was 0, the “Female progeny Total” value [4, 15] was 0 and the “Male progeny Total” value [4, 15] was 1267. The “Female progeny per daily vial” value ([4]; parents raised on Tet. 1 μg/ml) was 0, the “Female progeny Total” value ([4]; parents raised on Tet. 1 μg/ml) was 0 and the “Male progeny Total” value ([4]; parents raised on Tet. 1 μg/ml) was 1171. The “Female progeny per daily vial” value ([4]; parents raised on Tet. 5 μg/ml) was 0, the “Female progeny Total” value ([4]; parents raised on Tet. 5 μg/ml) was 0 and the “Male progeny Total” value ([4]; parents raised on Tet. 5 μg/ml) was 1165. For the same molecule, the “Female progeny per daily vial” value [4, 16] was 0, the “Female progeny Total” value [4, 16] was 0 and the “Male progeny Total” value [4, 16] was 1127. For the same molecule, the “Female progeny per daily vial” value [4, 17] was 0, the “Female progeny Total” value [4, 17] was 0 and the “Male progeny Total” value [4, 17] was 1168. The “Female progeny per daily vial” value [4, 18] was 0, the “Female progeny Total” value [4, 18] was 0 and the “Male progeny Total” value [4, 18] was 1137. For the same molecule, the “Female progeny Total” value [4, 19] was 3, the “Male progeny Total” value [4, 19] was 1309 and the “Female progeny Total” value [4, 20] was 32. For the same molecule, the “Male progeny Total” value [4, 20] was 1325, the “Female progeny emerging as adults” value [4, 6] was 2 and the “Male progeny emerging as adults” value [4, 6] was 973. For the same molecule, the “Female progeny emerging as adults” value [4, 7] was 0, the “Male progeny emerging as adults” value [4, 7] was 749 and the “Female progeny emerging as adults” value [4, 8] was 9. For the same molecule, the “Male progeny emerging as adults” value [4, 8] was 985, the “Female progeny emerging as adults” value [4, 9] was 0 and the “Male progeny emerging as adults” value [4, 9] was 737. For the same molecule, the “Female progeny emerging as adults” value [4, 10] was 5, the “Male progeny emerging as adults” value [4, 10] was 983 and the “Female progeny emerging as adults” value [4, 11] was 0. For the same molecule, the “Male progeny emerging as adults” value [4, 11] was 718, the “Female progeny per daily vial” value [5, 15] was 0 and the “Female progeny Total” value [5, 15] was 0. For the same molecule, the “Male progeny Total” value [5, 15] was 1464, the “Female progeny per daily vial” value ([5]; parents raised on Tet. 1 μg/ml) was 0 and the “Female progeny Total” value ([5]; parents raised on Tet. 1 μg/ml) was 0. The “Male progeny Total” value ([5]; parents raised on Tet. 1 μg/ml) was 1527, the “Female progeny per daily vial” value ([5]; parents raised on Tet. 5 μg/ml) was 0 and the “Female progeny Total” value ([5]; parents raised on Tet. 5 μg/ml) was 0. For the same molecule, the “Male progeny Total” value ([5]; parents raised on Tet. 5 μg/ml) was 1535, the “Female progeny per daily vial” value [5, 16] was 0 and the “Female progeny Total” value [5, 16] was 0. For the same molecule, the “Male progeny Total” value [5, 16] was 1243, the “Female progeny per daily vial” value [5, 17] was 0 and the “Female progeny Total” value [5, 17] was 0. For the same molecule, the “Male progeny Total” value [5, 17] was 1483, the “Female progeny Total” value [5, 18] was 2 and the “Male progeny Total” value [5, 18] was 1625. For the same molecule, the “Female progeny Total” value [5, 19] was 29, the “Male progeny Total” value [5, 19] was 1402 and the “Female progeny Total” value [5, 20] was 44. For the same molecule, the “Male progeny Total” value [5, 20] was 1543, the “Female progeny emerging as adults” value [5, 6] was 6 and the “Male progeny emerging as adults” value [5, 6] was 695. The “Female progeny emerging as adults” value [5, 7] was 0, the “Male progeny emerging as adults” value [5, 7] was 682 and the “Female progeny emerging as adults” value [5, 8] was 8. The “Male progeny emerging as adults” value [5, 8] was 816, the “Female progeny emerging as adults” value [5, 9] was 0 and the “Male progeny emerging as adults” value [5, 9] was 804. The “Female progeny emerging as adults” value [5, 10] was 8, the “Male progeny emerging as adults” value [5, 10] was 785 and the “Female progeny emerging as adults” value [5, 11] was 0. For the same molecule, the “Male progeny emerging as adults” value [5, 11] was 648.
